Data published in patent publication US10159726B2, “Peptides, combination of peptides and scaffolds for use in immunotherapeutic treatment of various cancers” (Immatics Biotechnologies GmbH, priority 2015, dated 2018).

What was measured:
[1] = test system: CD8+ T cells of healthy HLA-A*24+ donor; test: In vitro T-cell priming (immunogenicity) with aAPCs loaded with HLA-A*24 peptide/MHC and anti-CD28, multimer readout; type: cell-based, human; conditions: for in vitro immunogenicity, Wells positive [%]: HLA-A*24 peptides, in vitro priming, multimer readout; for peptide-specific in vitro CD8+ T cell response, 2D multimer staining: healthy HLA-A*24+ donor, three cycles of stimulation, FIG. 5, frequencies only in the figure
Experimental: In order to obtain information regarding the immunogenicity of the TUMAPs of the present invention, the inventors performed investigations using an in vitro T-cell priming assay based on repeated stimulations of CD8+ T cells with artificial antigen presenting cells (aAPCs) loaded with peptide/MHC complexes and anti-CD28 antibody.
PBMCs and isolated CD8+ lymphocytes were incubated in T-cell medium (TCM) until use consisting of RPMI-Glutamax (Invitrogen, Karlsruhe, Germany) supplemented with 10% heat inactivated human AB serum (PAN-Biotech, Aidenbach, Germany), 100 U/ml Penicillin/100 μg/ml Streptomycin (Cambrex, Cologne, Germany), 1 mM sodium pyruvate (CC Pro, Oberdorla, Germany), 20 μg/ml Gentamycin (Cambrex). 2.5 ng/ml IL-7 (PromoCell, Heidelberg, Germany) and 10 U/ml IL-2 (Novartis Pharma, Nürnberg, Germany) were also added to the TCM at this step.
Generation of pMHC/anti-CD28 coated beads, T-cell stimulations and readout was performed in a highly defined in vitro system using four different pMHC molecules per stimulation condition and 8 different pMHC molecules per readout condition.
The purified co-stimulatory mouse IgG2a anti human CD28 Ab 9.3 (Jung et al., 1987) was chemically biotinylated using Sulfo-N-hydroxysuccinimidobiotin as recommended by the manufacturer (Perbio, Bonn, Germany). Beads used were 5.6 μm diameter streptavidin coated polystyrene particles (Bangs Laboratories, Illinois, USA).
800.000 beads/200 μl were coated in 96-well plates in the presence of 4×12.5 ng different biotin-pMHC, washed and 600 ng biotin anti-CD28 were added subsequently in a volume of 200 μl. Stimulations were initiated in 96-well plates by co-incubating […] CD8+ T cells with 2×10^5 washed coated beads in 200 μl TCM supplemented with 5 ng/ml IL-12 (PromoCell) for 3 days at 37° C. Half of the medium was then exchanged by fresh TCM supplemented with 80 U/ml IL-2 and incubating was continued for 4 days at 37° C. This stimulation cycle was performed for a total of three times. For the pMHC multimer readout using 8 different pMHC molecules per condition, a two-dimensional combinatorial coding approach was used as previously described (Andersen et al., 2012) with minor modifications encompassing coupling to 5 different fluorochromes. Finally, multimeric analyses were performed by staining the cells with Live/dead near IR dye (Invitrogen, Karlsruhe, Germany), CD8-FITC antibody clone SK1 (BD, Heidelberg, Germany) and fluorescent pMHC multimers. For analysis, a BD LSRII SORP cytometer equipped with appropriate lasers and filters was used. Peptide specific cells were calculated as percentage of total CD8+ cells. Evaluation of multimeric analysis was done using the FlowJo software (Tree Star, Oregon, USA). In vitro priming of specific multimer+ CD8+ lymphocytes was detected by comparing to negative control stimulations.
Exemplary flow cytometry results after TUMAP-specific multimer staining for 2 peptides of the invention are shown in FIG. 3 together with corresponding negative controls. Exemplary flow cytometry results after TUMAP-specific multimer staining for 7 peptides of the invention are shown in FIGS. 4 and 5 together with corresponding negative controls.

HLA-A*24 = test: MHC binding assay, UV-ligand exchange with beta2m ELISA, HLA-A*24; design: species or system human; conditions: binding to HLA-A*24, UV-ligand exchange, β2m ELISA
From the text: Candidate peptides for T cell based therapies according to the present invention were further tested for their MHC binding capacity (affinity). The individual peptide-MHC complexes were produced by UV-ligand exchange, where a UV-sensitive peptide is cleaved upon UV-irradiation, and exchanged with the peptide of interest as analyzed. Only peptide candidates that can effectively bind and stabilize the peptide-receptive MHC molecules prevent dissociation of the MHC complexes. To determine the yield of the exchange reaction, an ELISA was performed based on the detection of the light chain (β2m) of stabilized MHC complexes. The assay was performed as generally described in Rodenko et al. (Rodenko et al., 2006).
96 well MAXISorp plates (NUNC) were coated over night with 2 ug/ml streptavidin in PBS at room temperature, washed 4× and blocked for 1 h at 37° C. in 2% BSA containing blocking buffer. […] Peptide-MHC monomers of the UV-exchange reaction were diluted 100 fold in blocking buffer. Samples were incubated for 1 h at 37° C., washed four times, incubated with 2 ug/ml HRP conjugated anti-β2m for 1 h at 37° C., washed again and detected with TMB solution that is stopped with […]. Absorption was measured at 450 nm. Candidate peptides that show a high exchange yield (preferably higher than 50%, most preferred higher than 75%) are generally preferred for a generation and production of antibodies or fragments thereof, and/or T cell receptors or fragments thereof, as they show sufficient avidity to the MHC molecules and prevent dissociation of the MHC complexes.

| Peptide exchange (MHC class I binding score, peptide exchange yield) (HLA-A*24) | Substance | in vitro immunogenicity, Wells positive [%] [1] | peptide-specific in vitro CD8+ T cell response, 2D multimer staining [1] |
| --- | --- | --- | --- |
| ++++ (>=75% = ++++) | 96 (YYTQYSQTI; listed as Homo sapiens) [compound 96] | + (<20% = +) | – |
| – | 98 (VFPRLHNVLF; listed as Homo sapiens) [compound 98] | + (<20% = +) | – |
| – | 103 (NYIPVKNGKQF; listed as Homo sapiens) [compound 103] | + (<20% = +) | – |
| ++++ (>=75% = ++++) | 104 (SYLTWHQQI; listed as Homo sapiens) [compound 104] | + (<20% = +) | – |
| – | 105 (IYNETITDLL; listed as Homo sapiens) [compound 105] | + (<20% = +) | – |
| – | 106 (IYNETVRDLL; listed as Homo sapiens) [compound 106] | + (<20% = +) | – |
| – | 111 (VYVQILQKL; listed as Homo sapiens) [compound 111] | + (<20% = +) | – |
| – | 115 (RYLNKSFVL; listed as Homo sapiens) [compound 115] | + (<20% = +) | – |
| ++++ (>=75% = ++++) | 132 (RYPALFPVL; listed as Homo sapiens) [compound 132] | + (<20% = +) | – |
| ++++ (>=75% = ++++) | 137 (EYLHNCSYF; listed as Homo sapiens) [compound 137] | + (<20% = +) | – |
| – | 142 (VYVDDIYVI; listed as Homo sapiens) [compound 142] | ++++ (>=70% = ++++) | – |
| ++++ (>=75% = ++++) | 156 (YYMELTKLLL; listed as Homo sapiens) [compound 156] | + (<20% = +) | – |
| – | 157 (DYIPASGFALF; listed as Homo sapiens) [compound 157] | + (<20% = +) | – |
| – | 158 (IYEETRGVLKVF; listed as Homo sapiens) [compound 158] | + (<20% = +) | – |
| – | 160 (RYGDGGSSF; listed as Homo sapiens) [compound 160] | + (<20% = +) | – |
| – | 161 (KYPDIVQQF; listed as Homo sapiens) [compound 161] | + (<20% = +) | – |
| – | 162 (KYTSYILAF; listed as Homo sapiens) [compound 162] | + (<20% = +) | – |
| ++++ (>=75% = ++++) | 163 (RYLTISNLQF; listed as Homo sapiens) [compound 163] | + (<20% = +) | – |
| – | 164 (HYVPATKVF; listed as Homo sapiens) [compound 164] | + (<20% = +) | – |
| ++++ (>=75% = ++++) | 166 (FYTLPFHLI; listed as Homo sapiens) [compound 166] | ++++ (>=70% = ++++) | – |
| – | 167 (RYGFYYVEF; listed as Homo sapiens) [compound 167] | ++++ (>=70% = ++++) | – |
| ++++ (>=75% = ++++) | 172 (VFIFKGNEF; listed as Homo sapiens) [compound 172] | + (<20% = +) | – |
| – | 174 (VYEKNGYIYF; listed as Homo sapiens) [compound 174] | ++++ (>=70% = ++++) | – |

| Peptide exchange (MHC class I binding score, peptide exchange yield) (HLA-A*24) | Substance | in vitro immunogenicity, Wells positive [%] [1] | peptide-specific in vitro CD8+ T cell response, 2D multimer staining [1] |
| --- | --- | --- | --- |
| – | 175 (LYSPVPFTL; listed as Homo sapiens) [compound 175] | + (<20% = +) | – |
| – | 177 (VYFKAGLDVF; listed as Homo sapiens) [compound 177] | + (<20% = +) | – |
| – | 180 (KYLQVVGMF; listed as Homo sapiens) [compound 180] | + (<20% = +) | – |
| – | 181 (VYPPYLNYL; listed as Homo sapiens) [compound 181] | ++++ (>=70% = ++++) | – |
| ++++ (>=75% = ++++) | 186 (VFTTSSNIF; listed as Homo sapiens) [compound 186] | + (<20% = +) | – |
| – | 190 (LYSELTETL; listed as Homo sapiens) [compound 190] | ++++ (>=70% = ++++) | – |
| ++++ (>=75% = ++++) | 305 (NYENKQYLF; listed as Homo sapiens) [compound 305] | – | – |
| ++++ (>=75% = ++++) | 311 (EYLQNLNHI; listed as Homo sapiens) [compound 311] | – | – |
| ++++ (>=75% = ++++) | 313 (KYTHFIQSF; listed as Homo sapiens) [compound 313] | – | – |
| ++++ (>=75% = ++++) | 319 (KYSDVKNLI; listed as Homo sapiens) [compound 319] | – | – |
| – | 344 (EYNSDLHQF; listed as Homo sapiens) [compound 344] | + (<20% = +) | – |
| – | 353 (TYGKIDLGF; listed as Homo sapiens) [compound 353] | + (<20% = +) | – |
| – | 354 (VYNEQIRDLL; listed as Homo sapiens) [compound 354] | + (<20% = +) | – |
| ++++ (>=75% = ++++) | 356 (NYMPGQLTI; listed as Homo sapiens) [compound 356] | + (<20% = +) | – |
| ++++ (>=75% = ++++) | 357 (QFITSTNTF; listed as Homo sapiens) [compound 357] | – | – |
| – | 358 (YYSEVPVKL; listed as Homo sapiens) [compound 358] | ++++ (>=70% = ++++) | – |
| – | 363 (SYAELGTTI; listed as Homo sapiens) [compound 363] | + (<20% = +) | – |
| ++++ (>=75% = ++++) | 379 (VFIAQGYTL; listed as Homo sapiens) [compound 379] | – | – |
| – | QYILAVPVL (listed as Homo sapiens) [SEQ ID NO: 99] | – | peptide-specific in vitro CD8+ T cell responses |
| – | VYEKNGYIYF (listed as Homo sapiens) [SEQ ID NO: 174] | – | peptide-specific in vitro CD8+ T cell responses |
| – | VYRVYVTTF (listed as Homo sapiens) [SEQ ID NO: 119] | – | peptide-specific in vitro CD8+ T cell responses |
| – | VYVDDIYVI (listed as Homo sapiens) [SEQ ID NO: 142] | – | peptide-specific in vitro CD8+ T cell responses |
